Measured values published in patent US12161641B2, “Treatments and prevention of opioid neonatal abstinence syndrome” (Ohio State Innovation Foundation, priority 2016, dated 2024).

Legend:
[1] = Time-course of drug levels in adult and embryonic mouse plasma, brain and liver after a single subcutaneous injection (LC-MS/MS); details: for 6β-naltrexol level, Embryo Brain / 6β-naltrexol level, Embryo Liver: dam 10 mg/kg subcutaneously
[2] = Drug levels in plasma, brain and liver during postnatal development; details: for Plasma levels: 45 minutes after single injection; for Brain / Liver / Plasma: single injection
Experimental: Drugs were dissolved in saline at concentrations between 10 and 20 mg/ml, and all dilutions were made in saline. Morphine was purchased from the Ohio State Medical Center pharmacy as a 15 mg/ml solution in saline. Animals were injected subcutaneously in the region around the right hind-quarters. […] After injection and variable survival times adult and pregnant mice were euthanized by cervical dislocation, and brain, liver and plasma were collected, quickly frozen on dry-ice and stored at −70° C. until processing After euthanizing the dam, embryos were collected into a large (150×15 mm) petri dish and kept on ice while maternal tissues were processed. All embryonic tissues were then dissected and collected in a cold room at 4° C. in order to facilitate and preserve tissue integrity during dissection, then stored at −70° C. […] Samples were later thawed, processed and analyzed via liquid chromatography-tandem mass spectrometry (LC-MS/MS) to quantify levels of drug. Detailed methods for tissue processing and LC-MS/MS analysis are located in the supplemental information.

[3] = 20 min survival, 10 mg/kg subcutaneously
[4] = 45 min survival, 10 mg/kg subcutaneously
[5] = 2 hrs survival, 10 mg/kg subcutaneously
[6] = 4 hrs survival, 10 mg/kg subcutaneously
[7] = non-compartmental, 0 to 240 min, 10 mg/kg subcutaneously

For `Oc1ccc2c3c1O[C@H]1[C@H](O)CC[C@@]4(O)[C@@H](C2)N(CC2CC2)CC[C@]314` [6β-naltrexol], the “fetal brain KP ratio” value ([1]; 20 min after injection) was “not significantly different from unity”, the “adult brain KP ratio (brain:plasma)” value ([1]; 20 min survival) was 0.13 and the “fetal brain:maternal plasma KP ratio” value ([1]; 45 min after drug injection) was 2.7. The “adult brain KP ratio (brain:plasma)” value ([1]; 45 minutes survival) was 0.34, the “fetal brain:maternal plasma KP ratio” value ([1]; 120 min after injection) was 15.7 and the “brain KP ratio based on AUC's (adult)” value ([1]; AUC's integrated over 4 hrs) was 0.58. For the same compound, the “KP ratio based on AUC's, adult liver” value ([1]; AUC-based) was 2.6, the “KP ratio based on AUC's, fetal liver” value ([1]; AUC-based) was 4.3 and the “fetal brain KP ratio based on non-compartmental AUC's” value ([1]; AUC-based) was 3.6. The “6β-naltrexol level, Adult Brain” value [1, 3] was 260 ng/g, the “6β-naltrexol level, Adult Brain” value [1, 4] was 310 ng/g and the “6β-naltrexol level, Adult Brain” value [1, 5] was 230 ng/g. For the same compound, the “6β-naltrexol level, Adult Brain” value [1, 6] was 110 ng/g, the “6β-naltrexol level, Adult Liver” value [1, 3] was 3570 ng/g and the “6β-naltrexol level, Adult Liver” value [1, 4] was 3200 ng/g. For the same compound, the “6β-naltrexol level, Adult Liver” value [1, 5] was 530 ng/g, the “6β-naltrexol level, Adult Liver” value [1, 6] was 280 ng/g and the “embryonic brain levels higher than in adult brain, at peak” value ([1]; at peak, 10 mg/kg subcutaneously) was ~9 fold. The “6β-naltrexol level, Embryo Brain” value ([1]; 20 min survival) was 1350 ng/g, the “6β-naltrexol level, Embryo Brain” value ([1]; 45 min survival) was 2780 ng/g and the “6β-naltrexol level, Embryo Brain” value ([1]; 2 hrs survival) was 1370 ng/g. For the same compound, the “6β-naltrexol level, Embryo Brain” value ([1]; 4 hrs survival) was 210 ng/g, the “6β-naltrexol level, Embryo Liver” value ([1]; 20 min survival) was 2970 ng/g and the “6β-naltrexol level, Embryo Liver” value ([1]; 45 min survival) was 4400 ng/g. The “6β-naltrexol level, Embryo Liver” value ([1]; 2 hrs survival) was 1040 ng/g, the “6β-naltrexol level, Embryo Liver” value ([1]; 4 hrs survival) was 250 ng/g and the “AUC for embryonic brain greater than that of adult brain” value ([1]; non-compartmental, 0 to 240 min) was 6 fold. For the same compound, the “area under the curve (AUC), (maternal) plasma” value [1, 7] was 83+6×10^3 ng/ml-min, the “area under the curve (AUC), adult brain” value [1, 7] was 49+2×10^3 ng/ml-min and the “area under the curve (AUC), adult liver” value [1, 7] was 274+36×10^3 ng/ml-min. For the same compound, the “area under the curve (AUC), embryonic (fetal) brain” value [1, 7] was 302+60×10^3 ng/ml-min, the “area under the curve (AUC), embryonic liver” value [1, 7] was 373+84 and the “6β-naltrexol level, Plasma” value [1, 3] was 2060 ng/g. The “6β-naltrexol level, Plasma” value [1, 4] was 930 ng/g, the “6β-naltrexol level, Plasma” value [1, 5] was 90 ng/g and the “6β-naltrexol level, Plasma” value [1, 6] was 40 ng/g. For the same compound, the Plasma levels ([2]; PD7) was 3660+350 ng/ml, the “Brain:Plasma Kp ratio” value ([2]; PD7, survival time 45 min) was 0.86 and the “Liver:Plasma Kp ratio” value ([2]; PD7, survival time 45 min) was 4.3. The Brain ([2]; PD7, survival time 45 min) was 3030 ± 340 ng/g, the Liver ([2]; PD7, survival time 45 min) was 15220 ± 1750 ng/g and the Plasma ([2]; PD7, survival time 45 min) was 3513 ng/mL. For the same compound, the “Brain:Plasma Kp ratio” value ([2]; PD14, survival time 45 min) was 2, the “Liver:Plasma Kp ratio” value ([2]; PD14, survival time 45 min) was 3.6 and the Brain ([2]; PD14, survival time 45 min) was 2860 ± 800 ng/g. The Liver ([2]; PD14, survival time 45 min) was 5050 ± 1260 ng/g, the Plasma ([2]; PD14, survival time 45 min) was 1410 ± 370 ng/mL and the “Brain:Plasma Kp ratio” value ([2]; PD20, survival time 20 min) was 0.33. The “Liver:Plasma Kp ratio” value ([2]; PD20, survival time 20 min) was 1.7, the Brain ([2]; PD20, survival time 20 min) was 350 ± 20 ng/g and the Liver ([2]; PD20, survival time 20 min) was 1830 ± 70 ng/g. The Plasma ([2]; PD20, survival time 20 min) was 1070 ± 100 ng/mL, the “brain:plasma KP ratios” value ([2]; PD20 and older) was 0.22-0.35 and the Plasma levels ([2]; PD32) was 170+30 ng/ml. For the same compound, the “Brain:Plasma Kp ratio” value ([2]; PD32, survival time 20 min) was 0.22, the “Liver:Plasma Kp ratio” value ([2]; PD32, survival time 20 min) was 1.3 and the Brain ([2]; PD32, survival time 20 min) was 260 ± 80 ng/g. The Liver ([2]; PD32, survival time 20 min) was 1510 ± 640 ng/g, the Plasma ([2]; PD32, survival time 20 min) was 1160 ± 730 ng/mL and the “Brain:Plasma Kp ratio” value ([2]; PD50, survival time 45 min) was 0.35. For the same compound, the “Liver:Plasma Kp ratio” value ([2]; PD50, survival time 45 min) was 1.9, the Brain ([2]; PD50, survival time 45 min) was 150 ± 10 ng/g and the Liver ([2]; PD50, survival time 45 min) was 820 ± 80 ng/g. The Plasma ([2]; PD50, survival time 45 min) was 430 ± 40 ng/mL, the Plasma levels ([2]; adults) was 930+220 ng/ml and the “liver:plasma KP ratios” value ([2]; all ages) was 1.3-4.2.
